# Measured values published in patent US12016939B2, “Skin treatment methods and compositions for transdermal delivery of active agents” (Topix Pharmaceuticals, Inc., priority 2020, dated 2024).
# Key:
# photoaged females [1] = test: Subject overall clinical improvement from baseline, 5-point scale; type: in vivo, human; details: after 12 weeks; scale 1=much improved to 5=worse
# Text: (§1) The dermatologist-investigator and subjects assessed the following facial efficacy parameters: overall severity of photodamage, dryness, lack of tactile smoothness, lack of visual smoothness, lack of softness, lack of luminosity, lack of radiance, lack of firmness, poor skin texture, fine facial wrinkles, crow's feet, dyschromia, and crepey cheek skin texture. All assessments were graded on a 5-point ordinal scale (0=none, 1=minimal, 2=mild, 3=moderate, 4=severe). […] The investigator and subjects referred to baseline images (front, right and left side images) of the subjects in completing this evaluation.
# photoaged females [2] = test: Investigator efficacy: facial skin appearance parameters graded on 5-point ordinal scale; type: in vivo, human; details: longitudinal intragroup
# Text: as §1
# (§2) Along with descriptive statistics (means, standard deviations, and percentages), investigator ordinal nonparametric data was analyzed using the Wilcoxon signed rank test and sign test for paired comparison at different time points within and between groups. Change was considered significant at a p-value of less than or equal to 0.05.
# The investigator graded facial skin appearance parameters using a 5-point ordinal scale (0=none, 1=minimal, 2=mild, 3=moderate, 4=severe) at baseline (visit 1), week 4 (visit 2), and week 8 (visit 3), and week 12 (visit 4).
# photoaged females [3] = test: Subject efficacy: self-assessed photodamage parameters, 5-point ordinal scale; type: in vivo, human
# Text: as §1, §2
# Subjects assessed their skin appearance across various photodamage parameters using a 5-pointordinal scale (0=none, 1=minimal, 2=mild, 3=moderate, 4=severe) at baseline, week 4, week 8, and week 12.
# photoaged females [4] = test: Adverse experiences and discontinuations in the clinical study
# Text: A single-site, double-blind controlled comparative study enrolled 45 photoaged females ages 35-65, Fitzpatrick skin types I-IV, with moderate wrinkling. Subjects who used facial retinoids within 3 months of screening, and/or facial alpha-hydroxy acids within 1 month were excluded. Subjects were randomized 2:1 into the following groups:
# The 0.25% retinal serum was used twice weekly for week 1, then every other night for week 2, then every night for weeks 3 and 4. The Test Moisturizer (Lipid Replenishing Cream, TOPIX Pharmaceuticals, Inc, Amityville, NY) was placed on top of the retinal serum at each nightly application and every morning.
# Cell 2: 15 subjects applied 0.025% tretinoin cream for 4 weeks. The 0.025% tretinoin cream was used twice weekly for the week 1, then every other night for week 2, then every night for weeks 3 and 4. Test Moisturizing cream (CeraVe Moisturizing Cream, L'Oreal, NY) was placed on top of the tretinoin cream (Ortho Dermatologies, NJ) at each application and every morning.
# photoaged females [5] = test system: photoaged females; set-up: species or system human; details: in vivo
# Text: Clinical photography was captured at each office visit using visible light of the central, right, and left face with a VISIA CR43 camera system (Canfield Scientific, NJ). Noninvasive assessments for barrier function in the form of transepidermal water loss (TEWL) measurements were taken from the left face using Evaporimeter, Cyberderm, Broomall, PA
# TEWL (Evaporimeter, Cyberderm, Broomall, PA) measurements were taken at baseline, week 8, and week 12. […] TEWL increase was 16% lower in the retinol group as compared to the tretinoin group.
smiles,measurement,setting,value
CC1=C(/C=C/C(C)=C/C=C/C(C)=C/C(=O)O)C(C)(C)CCC1 [tretinoin],"subject overall clinical improvement from baseline, on average reported",photoaged females [1],much-improved
same,"luminosity, investigator",photoaged females [2]; week 4,statistically significant improvement
same,"radiance, investigator",photoaged females [2]; week 4,statistically significant improvement
same,"softness, investigator",photoaged females [2]; week 4,statistically significant improvement
same,"tactile smoothness, investigator",photoaged females [2]; week 4,statistically significant improvement
same,"visual smoothness, investigator","photoaged females [2]; week 4, retinol P=0.031",no significance
same,"firmness, investigator",photoaged females [2]; week 8,statistical significance
same,"luminosity, investigator",photoaged females [2]; week 8,statistical significance
same,"overall photoaging appearance, investigator",photoaged females [2]; week 8,statistical significance
same,"radiance, investigator",photoaged females [2]; week 8,statistical significance
same,"skin texture, investigator",photoaged females [2]; week 8,statistical significance
same,"softness, investigator",photoaged females [2]; week 8,statistical significance
same,"tactile smoothness, investigator",photoaged females [2]; week 8,statistical significance
same,"visual smoothness, investigator",photoaged females [2]; week 8,statistical significance
same,"skin dryness, investigator","photoaged females [2]; week 8, retinol P<0.001",not seen
same,"subject assessed improvement, intragroup longitudinal",photoaged females [3]; all time points,experienced improvement
same,"softness, subject","photoaged females [3]; week 8, intragroup, retinol serum P<0.001",not seen until week 8
same,"most parameters, subject","photoaged females [3]; week 12, intragroup",statistical significance
same,subjects discontinued due to retinoid tolerability issues,"photoaged females [4]; 12-week study, Cell 1 30 subjects, Cell 2 15 subjects",one
same,serious adverse events,photoaged females [4]; during the conduct of the study,No serious adverse events
same,increase in TEWL,"photoaged females [5]; female, human, 12 weeks",104%
same,"barrier damage (TEWL), intragroup",photoaged females [5],induced barrier damage
